The values that follow come from patent US6063587A, “Water-soluble tetrazolium salt compounds” (Dojindo Laboratories Co., Ltd., priority 1996, dated 2000).

The conditions of series [1]: background statement; cited from earlier work.
Series [2] in a line: Storage stability test (absorbance of aqueous buffer solution at 460 nm). The class given is physicochemical. The settings on record: 1 mM in 50 mM Tris buffer (pH 8.0), stored at 4° C. for 0, 1, 7, 14, 31 and 90 days. The procedure: 50 mM Tris buffer (pH 8.0) containing 1 mM of Compound a was stored at 4° C. for 0, 1, 7, 14, 31 and 90 days, and absorbances at 460 nm were measured. At the same time, the compound of the above general formula (2) described in Japanese Patent Unexamined Publication No.(Hei) 7-70092/1995 wherein both R^1 and R^2 are nitro groups (Compound b: see, the section of "Background Art") was stored in the same manner, and changes of absorbance were measured.

`COc1cc(-c2ccc(-n3nc(-c4ccccc4)n[n+]3-c3ccc([N+](=O)[O-])cc3)c(OC)c2)ccc1-n1nc(-c2ccccc2)n[n+]1-c1ccc([N+](=O)[O-])cc1` [nitro-TB, 3,3'-[3,3'-dimethoxy-(1,1'-biphenyl)-4,4'-diyl]-bis[2-(4-nitrophenyl)-5-phenyl]-2H-tetrazolium chloride]: the “water solubility of formazan compound” value in series [1] is listed as “low water solubility”.

Turning to `O=[N+]([O-])c1ccc(-n2nc(-c3ccc(S(=O)(=O)O)cc3S(=O)(=O)[O-])n[n+]2-c2ccc(I)cc2)c([N+](=O)[O-])c1` [Compound b], in series [2], the “changes of absorbance at 460 nm on storage” value is listed as “remarkable increases of absorbance”.
